# Reference: article PMC6704710, “Preclinical evaluation of 3D185, a novel potent inhibitor of FGFR1/2/3 and CSF-1R, in FGFR-dependent and macrophage-dominant cancer models” (Journal of Experimental & Clinical Cancer Research : CR, 2019)
# pIC50: −log10 of the molar value. Like-named read-outs stand apart in the source and are kept apart here.
# Legend:
# [1] = test system: ERK phosphorylation in NCI-H1581 tumors; assay: Pharmacodynamic study, intratumoral p-ERK; settings: 6 h after single oral dose of 12.5, 25 or 50 mg/kg
# CDK2/cyclinE(h) = target: T1, CDK2/cyclinE(h) (Homo sapiens, UniProt P24941); assay: Eurofins kinase panel; format: biochemical; settings: read-out: Inhibition rate (%)
# T1 construct: purchased Eurofins (KinaseProfiler)
# PKCη(h) = target: T2, PKCη(h) (Homo sapiens, UniProt P24723); assay: Eurofins kinase panel; format: biochemical; settings: read-out: Inhibition rate (%)
# T2 construct: purchased Eurofins (KinaseProfiler)
# T2 sequence (P24723 whole entry): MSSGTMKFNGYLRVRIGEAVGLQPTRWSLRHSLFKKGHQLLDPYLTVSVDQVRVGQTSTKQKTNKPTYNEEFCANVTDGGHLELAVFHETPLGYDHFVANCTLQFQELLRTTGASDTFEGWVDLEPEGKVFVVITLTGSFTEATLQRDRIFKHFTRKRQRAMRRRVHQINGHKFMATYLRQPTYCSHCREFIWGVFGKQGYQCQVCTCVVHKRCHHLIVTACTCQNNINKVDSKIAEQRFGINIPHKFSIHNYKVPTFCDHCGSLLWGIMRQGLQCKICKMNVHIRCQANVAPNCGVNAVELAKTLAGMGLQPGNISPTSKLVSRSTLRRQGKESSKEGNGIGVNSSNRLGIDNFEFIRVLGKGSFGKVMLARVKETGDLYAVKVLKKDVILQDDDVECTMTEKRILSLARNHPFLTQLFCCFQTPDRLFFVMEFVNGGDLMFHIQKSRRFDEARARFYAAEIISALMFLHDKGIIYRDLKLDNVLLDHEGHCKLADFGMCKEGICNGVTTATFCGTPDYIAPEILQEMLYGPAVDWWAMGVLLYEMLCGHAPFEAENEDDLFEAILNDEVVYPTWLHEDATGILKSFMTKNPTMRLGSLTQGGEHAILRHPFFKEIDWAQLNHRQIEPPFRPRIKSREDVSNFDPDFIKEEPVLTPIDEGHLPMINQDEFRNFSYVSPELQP
# [2] = test system: 11 FGFR- or CSF-1R-dependent cancer cell lines; assay: Cell proliferation assay, sensitive panel; format: cell-based
# Protocol: (§1) The cancer cell lines indicated in Figure 3 were seeded in 96-well plates at a low density in growth medium. The next day, appropriate controls or the designated concentrations of the compounds were added to each well, and the cells were incubated for 72 h. HUVECs (passage 3) were seeded in 96-well plates in growth medium overnight and transferred to serum-free medium for 24 h. The following day, appropriate controls or the designated concentrations of the compounds were added to each well, and 100 ng/mL growth factor (bFGF or VEGF) was added to the indicated wells. The cells were incubated for 48 h. Finally, cell proliferation was determined using a sulforhodamine B (SRB) assay or a cell counting kit-8 (CCK-8) assay. […] IC50 values for proliferation curves were calculated using a 4-parameter logistic nonlinear regression model with SoftMax Pro Software (Molecular Devices, San Jose, USA).
# [3] = test system: VEGF-induced primary HUVECs; assay: VEGF-induced HUVEC proliferation (CCK-8); format: cell-based; settings: Homo sapiens, VEGF 100 ng/mL, 48 h
# Protocol: Fig. 1 3D185 is a dual FGFR1/2/3 and CSF-1R inhibitor with high selectivity. a Chemical structure of 3D185. […]. H, A broad kinase profile of 3D185 against 372 protein kinases. […]. Representative data from three independent experiments are shown
# as §1
# TAO1(h) = target: T3, TAO1(h) (Homo sapiens, UniProt Q7L7X3); assay: Eurofins kinase panel; format: biochemical; settings: read-out: Inhibition rate (%)
# T3 construct: purchased Eurofins (KinaseProfiler)
# T3 sequence (Q7L7X3 1-1001): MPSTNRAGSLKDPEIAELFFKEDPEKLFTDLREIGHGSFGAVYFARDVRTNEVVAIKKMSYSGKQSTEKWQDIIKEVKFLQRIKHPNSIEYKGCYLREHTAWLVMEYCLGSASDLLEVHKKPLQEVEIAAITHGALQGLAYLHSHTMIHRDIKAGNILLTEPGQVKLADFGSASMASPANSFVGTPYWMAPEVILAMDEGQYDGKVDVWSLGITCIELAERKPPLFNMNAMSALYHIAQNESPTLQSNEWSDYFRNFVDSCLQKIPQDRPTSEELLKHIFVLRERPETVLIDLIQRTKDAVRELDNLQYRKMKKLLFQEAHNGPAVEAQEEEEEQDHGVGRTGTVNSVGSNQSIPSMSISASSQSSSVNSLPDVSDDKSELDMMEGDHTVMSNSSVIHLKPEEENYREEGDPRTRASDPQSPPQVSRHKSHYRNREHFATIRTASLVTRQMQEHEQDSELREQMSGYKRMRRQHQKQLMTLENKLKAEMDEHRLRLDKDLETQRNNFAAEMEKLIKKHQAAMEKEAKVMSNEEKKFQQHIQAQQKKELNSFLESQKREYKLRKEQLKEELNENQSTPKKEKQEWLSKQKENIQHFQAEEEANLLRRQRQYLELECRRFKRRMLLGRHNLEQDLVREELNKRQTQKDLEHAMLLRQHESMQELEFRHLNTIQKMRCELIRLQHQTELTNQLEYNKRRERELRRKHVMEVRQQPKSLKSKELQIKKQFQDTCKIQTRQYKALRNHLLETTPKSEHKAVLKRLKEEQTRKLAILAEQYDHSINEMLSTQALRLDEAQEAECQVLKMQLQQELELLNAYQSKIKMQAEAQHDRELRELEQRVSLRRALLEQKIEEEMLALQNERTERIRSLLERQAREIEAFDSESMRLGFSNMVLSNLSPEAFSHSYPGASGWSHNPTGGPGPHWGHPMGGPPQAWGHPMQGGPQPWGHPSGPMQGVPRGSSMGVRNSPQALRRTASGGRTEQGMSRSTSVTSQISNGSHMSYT
# Pim-1(h) = target: T4, Pim-1(h) (Homo sapiens, UniProt P11309); assay: Eurofins kinase panel; format: biochemical; settings: read-out: Inhibition rate (%)
# T4 construct: purchased Eurofins (KinaseProfiler)
# T4 sequence (P11309 whole entry): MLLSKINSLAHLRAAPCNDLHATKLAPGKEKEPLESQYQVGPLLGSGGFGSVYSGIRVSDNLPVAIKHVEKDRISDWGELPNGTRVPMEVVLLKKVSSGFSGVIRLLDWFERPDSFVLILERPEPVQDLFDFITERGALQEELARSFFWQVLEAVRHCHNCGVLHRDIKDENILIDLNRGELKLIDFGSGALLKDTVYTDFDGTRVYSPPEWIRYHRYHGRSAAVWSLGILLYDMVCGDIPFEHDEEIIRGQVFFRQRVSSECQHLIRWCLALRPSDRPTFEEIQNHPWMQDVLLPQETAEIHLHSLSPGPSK
# cSRC(h) = target: T5, cSRC(h) (Homo sapiens, UniProt P12931); assay: Eurofins kinase panel; format: biochemical; settings: read-out: Inhibition rate (%)
# T5 construct: purchased Eurofins (KinaseProfiler)
# T5 sequence (P12931 whole entry): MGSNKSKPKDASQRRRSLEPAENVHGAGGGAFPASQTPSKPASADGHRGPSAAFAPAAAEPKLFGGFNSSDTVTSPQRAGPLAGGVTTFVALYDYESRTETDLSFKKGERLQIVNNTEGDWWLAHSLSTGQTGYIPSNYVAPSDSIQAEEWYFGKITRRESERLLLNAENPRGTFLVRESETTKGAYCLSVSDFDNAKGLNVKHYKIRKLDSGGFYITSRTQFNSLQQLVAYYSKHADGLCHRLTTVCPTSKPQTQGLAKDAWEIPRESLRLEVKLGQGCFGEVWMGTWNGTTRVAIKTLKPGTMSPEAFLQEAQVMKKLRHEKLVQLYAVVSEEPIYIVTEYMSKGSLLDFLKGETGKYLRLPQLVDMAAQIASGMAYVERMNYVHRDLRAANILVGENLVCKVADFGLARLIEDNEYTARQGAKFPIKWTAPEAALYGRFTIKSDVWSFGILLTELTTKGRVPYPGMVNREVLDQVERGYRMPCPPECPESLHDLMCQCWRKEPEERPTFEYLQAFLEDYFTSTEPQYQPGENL
# PASK(h) = target: T6, PASK(h) (Homo sapiens, UniProt Q96RG2); assay: Eurofins kinase panel; format: biochemical; settings: read-out: Inhibition rate (%)
# T6 construct: purchased Eurofins (KinaseProfiler)
# Snk(h) = target: T7, Snk(h) (Homo sapiens, UniProt Q9NYY3); assay: Eurofins kinase panel; format: biochemical; settings: read-out: Inhibition rate (%)
# T7 construct: purchased Eurofins (KinaseProfiler)
# T7 sequence (Q9NYY3 whole entry): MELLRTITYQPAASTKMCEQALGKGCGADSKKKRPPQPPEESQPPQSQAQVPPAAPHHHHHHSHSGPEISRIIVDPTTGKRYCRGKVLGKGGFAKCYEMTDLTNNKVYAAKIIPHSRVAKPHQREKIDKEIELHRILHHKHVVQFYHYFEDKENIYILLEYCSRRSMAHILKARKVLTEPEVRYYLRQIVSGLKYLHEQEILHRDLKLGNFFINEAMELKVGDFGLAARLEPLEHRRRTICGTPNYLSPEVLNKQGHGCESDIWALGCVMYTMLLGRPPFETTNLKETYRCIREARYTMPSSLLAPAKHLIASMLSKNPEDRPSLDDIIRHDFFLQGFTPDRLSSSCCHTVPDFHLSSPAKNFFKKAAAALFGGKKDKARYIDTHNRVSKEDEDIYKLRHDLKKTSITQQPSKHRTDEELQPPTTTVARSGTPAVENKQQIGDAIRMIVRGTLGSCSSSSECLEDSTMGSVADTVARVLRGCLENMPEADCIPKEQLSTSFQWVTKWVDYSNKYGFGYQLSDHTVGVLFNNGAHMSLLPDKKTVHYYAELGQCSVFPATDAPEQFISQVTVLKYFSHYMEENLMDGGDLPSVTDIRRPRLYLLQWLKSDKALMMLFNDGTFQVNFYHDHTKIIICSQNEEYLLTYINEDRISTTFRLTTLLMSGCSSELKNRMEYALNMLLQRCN
# MST4(h) = target: T8, MST4(h) (Homo sapiens, UniProt Q9P289); assay: Eurofins kinase panel; format: biochemical; settings: read-out: Inhibition rate (%)
# T8 construct: purchased Eurofins (KinaseProfiler)
# T8 sequence (Q9P289 whole entry): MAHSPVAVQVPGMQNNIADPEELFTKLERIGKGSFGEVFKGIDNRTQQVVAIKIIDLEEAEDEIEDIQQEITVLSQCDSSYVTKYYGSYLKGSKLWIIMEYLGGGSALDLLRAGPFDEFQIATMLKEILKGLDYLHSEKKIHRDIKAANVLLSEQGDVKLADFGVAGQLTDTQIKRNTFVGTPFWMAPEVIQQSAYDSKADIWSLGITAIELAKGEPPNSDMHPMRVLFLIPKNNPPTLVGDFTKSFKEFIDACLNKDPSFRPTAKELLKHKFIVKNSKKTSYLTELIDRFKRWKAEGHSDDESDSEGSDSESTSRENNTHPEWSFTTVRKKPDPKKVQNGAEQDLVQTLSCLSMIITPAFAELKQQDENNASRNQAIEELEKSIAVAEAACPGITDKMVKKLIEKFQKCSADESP
# Aurora-C(h) = target: T9, Aurora-C(h) (Homo sapiens, UniProt Q9UQB9); assay: Eurofins kinase panel; format: biochemical; settings: read-out: Inhibition rate (%)
# T9 construct: purchased Eurofins (KinaseProfiler)
# T9 sequence (Q9UQB9 1-309): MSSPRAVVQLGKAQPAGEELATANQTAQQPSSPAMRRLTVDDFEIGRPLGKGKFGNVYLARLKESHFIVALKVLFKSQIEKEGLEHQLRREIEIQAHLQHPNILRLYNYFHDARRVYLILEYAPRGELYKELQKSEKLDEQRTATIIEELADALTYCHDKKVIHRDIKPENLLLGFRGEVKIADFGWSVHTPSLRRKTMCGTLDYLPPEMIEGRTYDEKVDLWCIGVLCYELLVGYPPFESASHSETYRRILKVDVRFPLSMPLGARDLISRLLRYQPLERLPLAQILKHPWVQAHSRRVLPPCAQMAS
# HIPK1(h) = target: T10, HIPK1(h) (Homo sapiens, UniProt Q86Z02); assay: Eurofins kinase panel; format: biochemical; settings: read-out: Inhibition rate (%)
# T10 construct: purchased Eurofins (KinaseProfiler)
# T10 sequence (Q86Z02 whole entry): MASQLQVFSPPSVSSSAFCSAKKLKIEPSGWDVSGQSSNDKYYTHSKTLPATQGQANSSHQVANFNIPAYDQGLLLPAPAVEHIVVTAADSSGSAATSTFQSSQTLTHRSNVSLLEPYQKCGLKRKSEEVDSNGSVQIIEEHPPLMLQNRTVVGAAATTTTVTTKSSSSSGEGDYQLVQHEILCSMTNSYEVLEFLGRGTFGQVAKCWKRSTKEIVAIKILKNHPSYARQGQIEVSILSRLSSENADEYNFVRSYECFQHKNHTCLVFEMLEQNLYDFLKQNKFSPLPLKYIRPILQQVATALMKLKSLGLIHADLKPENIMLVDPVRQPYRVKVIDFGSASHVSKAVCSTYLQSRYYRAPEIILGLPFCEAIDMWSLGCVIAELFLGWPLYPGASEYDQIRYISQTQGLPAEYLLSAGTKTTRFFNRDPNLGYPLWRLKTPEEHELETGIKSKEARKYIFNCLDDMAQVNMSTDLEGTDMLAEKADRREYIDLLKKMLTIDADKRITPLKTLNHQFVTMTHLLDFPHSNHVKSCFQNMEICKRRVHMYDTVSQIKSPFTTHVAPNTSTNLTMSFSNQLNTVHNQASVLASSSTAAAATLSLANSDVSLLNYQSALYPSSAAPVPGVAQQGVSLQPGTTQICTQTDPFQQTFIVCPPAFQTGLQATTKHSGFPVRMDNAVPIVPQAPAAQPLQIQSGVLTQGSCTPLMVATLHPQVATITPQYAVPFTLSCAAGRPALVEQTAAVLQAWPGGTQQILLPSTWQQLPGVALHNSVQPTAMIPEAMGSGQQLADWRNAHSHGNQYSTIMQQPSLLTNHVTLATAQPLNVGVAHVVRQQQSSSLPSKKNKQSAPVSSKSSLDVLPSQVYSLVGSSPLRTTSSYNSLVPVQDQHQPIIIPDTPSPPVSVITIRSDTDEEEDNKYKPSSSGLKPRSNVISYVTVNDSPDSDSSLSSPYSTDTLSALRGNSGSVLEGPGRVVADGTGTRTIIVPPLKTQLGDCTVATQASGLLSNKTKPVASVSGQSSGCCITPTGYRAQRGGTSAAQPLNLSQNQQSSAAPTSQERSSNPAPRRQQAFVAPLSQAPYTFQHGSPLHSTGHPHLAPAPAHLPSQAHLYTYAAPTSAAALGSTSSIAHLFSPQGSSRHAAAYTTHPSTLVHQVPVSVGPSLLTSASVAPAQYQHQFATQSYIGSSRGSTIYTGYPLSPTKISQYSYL
compound,measurement,setting,value
COc1cc(OC)c(Cl)c(-c2ccc3c(NC(=O)c4ccc(N5CCNC(C)(C)C5)cc4)n[nH]c3n2)c1Cl [3D185],intratumoral ERK phosphorylation,[1],nearly complete inhibition of ERK phosphorylation
same,inhibition at 0.01 µM,CDK2/cyclinE(h); 10 nM,-5%
same,inhibition at 0.1 µM,CDK2/cyclinE(h); 100 nM,2%
same,inhibition at 1 µM,CDK2/cyclinE(h); 1000 nM,10%
same,inhibition at 0.01 µM,PKCη(h); 10 nM,-10%
same,inhibition at 0.1 µM,PKCη(h); 100 nM,-1%
same,inhibition at 1 µM,PKCη(h); 1000 nM,-9%
same,pIC50,"[2]; FGFR1-, FGFR2-, FGFR3- and CSF-1R-mediated proliferation, read-out: IC50 values, range over cell lines",7.43 to 9.05
same,pIC50,"[2]; mean over CSF-1R dependent and FGFRs dependent lines, read-out: Mean IC50",7.76
same,pIC50,[3],7.06
same,inhibition at 0.01 µM,TAO1(h); 10 nM,-2%
same,inhibition at 0.1 µM,TAO1(h); 100 nM,6%
same,inhibition at 1 µM,TAO1(h); 1000 nM,21%
same,inhibition at 0.01 µM,Pim-1(h); 10 nM,-5%
same,inhibition at 0.1 µM,Pim-1(h); 100 nM,13%
same,inhibition at 1 µM,Pim-1(h); 1000 nM,9%
same,inhibition at 0.01 µM,cSRC(h); 10 nM,26%
same,inhibition at 0.1 µM,cSRC(h); 100 nM,53%
same,inhibition at 1 µM,cSRC(h); 1000 nM,87%
same,inhibition at 0.01 µM,PASK(h); 10 nM,-15%
same,inhibition at 0.1 µM,PASK(h); 100 nM,1%
same,inhibition at 1 µM,PASK(h); 1000 nM,10%
same,inhibition at 0.01 µM,Snk(h); 10 nM,0%
same,inhibition at 0.1 µM,Snk(h); 100 nM,-2%
same,inhibition at 1 µM,Snk(h); 1000 nM,10%
same,inhibition at 0.01 µM,MST4(h); 10 nM,6%
same,inhibition at 0.1 µM,MST4(h); 100 nM,27%
same,inhibition at 1 µM,MST4(h); 1000 nM,70%
same,inhibition at 0.01 µM,Aurora-C(h); 10 nM,-15%
same,inhibition at 0.1 µM,Aurora-C(h); 100 nM,6%
same,inhibition at 1 µM,Aurora-C(h); 1000 nM,-2%
same,inhibition at 0.01 µM,HIPK1(h); 10 nM,-3%
same,inhibition at 0.1 µM,HIPK1(h); 100 nM,4%
same,inhibition at 1 µM,HIPK1(h); 1000 nM,10%
